# Source: US20230330093A1, “APPLICATION OF NITROGEN-CONTAINING SATURATED HETEROCYCLIC COMPOUND” (SHANGHAI PHARMACEUTICALS HOLDING CO., LTD., priority 2020, published 2023)
# Tested on: cynomolgus monkeys
# Test: 4-week safety study: routine ECG analysis
# Assay type: in vivo
# Procedure: Routine ECG analysis was performed at each scheduled time (day 1 after administration, d01 and d02 after administration, 1 and 24 h after administration on day 1, before administration, and 1 and 24 h after administration on day 26 and day 56). P-wave, R-wave, T-wave, P-R intervals, Q-T intervals, QRS duration and heart rate were recorded by an ECG system using derivation DII (ECG-6951E, Shanghai, China).
smiles,measurement,setting,value
COC(=O)NCCCn1nc([C@@H](C)N(C(=O)[C@H]2CNCCO2)C2CC2)c2ccc(C)nc21 [compound of Formula I],HR,"Female, 20 mg/kg, 1 h (d 1)",230.1 ± 20.5 bmp
same,QRS,"Female, 20 mg/kg, 1 h (d 1)",38.0 ± 4.5 ms
same,QT,"Female, 20 mg/kg, 1 h (d 1)",160.0 ± 7.1 ms
same,QTc,"Female, 20 mg/kg, 1 h (d 1)",250.2 ± 10.4 ms
same,HR,"Female, 20 mg/kg, 1 h (d 26)",262.8 ± 13.5 bmp
same,QRS,"Female, 20 mg/kg, 1 h (d 26)",36.0 ± 5.5 ms
same,QT,"Female, 20 mg/kg, 1 h (d 26)",140.0 ± 7.1 ms
same,QTc,"Female, 20 mg/kg, 1 h (d 26)",228.9 ± 8.0 ms
same,HR,"Female, 20 mg/kg, 24 h (d 1)",209.8 ± 9.3 bmp
same,QRS,"Female, 20 mg/kg, 24 h (d 1)",34.0 ± 8.9 ms
same,QT,"Female, 20 mg/kg, 24 h (d 1)",158.0 ± 4.5 ms
same,QTc,"Female, 20 mg/kg, 24 h (d 1)",239.7 ± 5.4 ms
same,HR,"Female, 20 mg/kg, 24 h (d 26)",245.4 ± 43.9 bmp
same,QRS,"Female, 20 mg/kg, 24 h (d 26)",36.0 ± 5.5 ms
same,QT,"Female, 20 mg/kg, 24 h (d 26)",150.0 ± 10.0 ms
same,QTc,"Female, 20 mg/kg, 24 h (d 26)",238.6 ± 14.1 ms
same,HR,"Female, 20 mg/kg, d0",185.7 ± 48.0 bmp
same,QRS,"Female, 20 mg/kg, d0",34.0 ± 5.5 ms
same,QT,"Female, 20 mg/kg, d0",170.0 ± 20.0 ms
same,QTc,"Female, 20 mg/kg, d0",244.6 ± 14.3 ms
same,HR,"Female, 20 mg/kg, d 56",238.0 ± 29.2 bmp
same,QRS,"Female, 20 mg/kg, d 56",40.0 ± 0.0 ms
same,QT,"Female, 20 mg/kg, d 56",160.0 ± 0.0 ms
same,QTc,"Female, 20 mg/kg, d 56",253.1 ± 10.4 ms
same,HR,"Female, 100 mg/kg, 1 h (d 1)",228.5 ± 12.8 bmp
same,QRS,"Female, 100 mg/kg, 1 h (d 1)",36.0 ± 5.5 ms
same,QT,"Female, 100 mg/kg, 1 h (d 1)",160.0 ± 7.1 ms
same,QTc,"Female, 100 mg/kg, 1 h (d 1)",249.6 ± 6.7 ms
same,HR,"Female, 100 mg/kg, 1 h (d 26)",246.4 ± 40.7 bmp
same,QRS,"Female, 100 mg/kg, 1 h (d 26)",38.0 ± 4.5 ms
same,QT,"Female, 100 mg/kg, 1 h (d 26)",170.0 ± 10.0 ms
same,QTc,"Female, 100 mg/kg, 1 h (d 26)",271.1 ± 17.2 ms
same,HR,"Female, 100 mg/kg, 24 h (d 1)",217.6 ± 22.7 bmp
same,QRS,"Female, 100 mg/kg, 24 h (d 1)",34.0 ± 5.5 ms
same,QT,"Female, 100 mg/kg, 24 h (d 1)",162.0 ± 11.0 ms
same,QTc,"Female, 100 mg/kg, 24 h (d 1)",248.2 ± 7.7 ms
same,HR,"Female, 100 mg/kg, 24 h (d 26)",256.1 ± 17.1 bmp
same,QRS,"Female, 100 mg/kg, 24 h (d 26)",38.0 ± 4.5 ms
same,QT,"Female, 100 mg/kg, 24 h (d 26)",148.0 ± 8.4 ms
same,QTc,"Female, 100 mg/kg, 24 h (d 26)",239.8 ± 10.5 ms
same,HR,"Female, 100 mg/kg, d0",182.3 ± 28.9 bmp
same,QRS,"Female, 100 mg/kg, d0",32.0 ± 4.5 ms
same,QT,"Female, 100 mg/kg, d0",170.0 ± 12.2 ms
same,QTc,"Female, 100 mg/kg, d0",245.0 ± 9.2 ms
same,HR,"Female, 100 mg/kg, d 56",230.8 ± 5.0 bmp
same,QRS,"Female, 100 mg/kg, d 56",30.0 ± 0.0 ms
same,QT,"Female, 100 mg/kg, d 56",160.0 ± 0.0 ms
same,QTc,"Female, 100 mg/kg, d 56",250.7 ± 1.8 ms
same,HR,"Female, 450 mg/kg, 1 h (d 1)",211.3 ± 20.5 bmp
same,QRS,"Female, 450 mg/kg, 1 h (d 1)",50.0 ± 14.1 ms
same,QT,"Female, 450 mg/kg, 1 h (d 1)",175.0 ± 17.3 ms
same,QTc,"Female, 450 mg/kg, 1 h (d 1)",265.5 ± 19.9 ms
same,HR,"Female, 450 mg/kg, 1 h (d 26)",262.7 ± 15.4 bmp
same,QRS,"Female, 450 mg/kg, 1 h (d 26)",40.0 ± 0.2 ms
same,QT,"Female, 450 mg/kg, 1 h (d 26)",140.0 ± 8.2 ms
same,QTc,"Female, 450 mg/kg, 1 h (d 26)",229.0 ± 14.6 ms
same,HR,"Female, 450 mg/kg, 24 h (d 1)",211.3 ± 2.4 bmp
same,QRS,"Female, 450 mg/kg, 24 h (d 1)",35.0 ± 5.8 ms
same,QT,"Female, 450 mg/kg, 24 h (d 1)",162.5 ± 9.6 ms
same,QTc,"Female, 450 mg/kg, 24 h (d 1)",247.2 ± 13.8 ms
same,HR,"Female, 450 mg/kg, 24 h (d 26)",257.8 ± 9.0 bmp
same,QRS,"Female, 450 mg/kg, 24 h (d 26)",32.5 ± 5.0 ms
same,QT,"Female, 450 mg/kg, 24 h (d 26)",152.5 ± 9.6 ms
same,QTc,"Female, 450 mg/kg, 24 h (d 26)",247.8 ± 14.4 ms
same,HR,"Female, 450 mg/kg, d0",174.1 ± 28.8 bmp
same,QRS,"Female, 450 mg/kg, d0",32.0 ± 4.5 ms
same,QT,"Female, 450 mg/kg, d0",168.0 ± 16.4 ms
same,QTc,"Female, 450 mg/kg, d0",238.1 ± 12.7 ms
same,HR,"Female, 450 mg/kg, d 56",207.4 ± 28.1 bmp
same,QRS,"Female, 450 mg/kg, d 56",25.0 ± 7.1 ms
same,QT,"Female, 450 mg/kg, d 56",170.0 ± 14.1 ms
same,QTc,"Female, 450 mg/kg, d 56",256.3 ± 9.7 ms
same,HR,"Male, 20 mg/kg, 1 h (d 1)",216.0 ± 27.0 bmp
same,QRS,"Male, 20 mg/kg, 1 h (d 1)",32.0 ± 4.5 ms
same,QT,"Male, 20 mg/kg, 1 h (d 1)",158.0 ± 11.0 ms
